What all share (type): cell-based
One experiment deals with HeLa. Description: MTT cytotoxicity assay. The settings on record: Homo sapiens, 48 h. Here is the method:
(§1) The effects of compounds on cells proliferation were evaluated using the 3-(4,5-dimethylthiazol-2-yl)-2,5-diphenyltetrazolium bromide (MTT) assay. […] The cells were placed in 96-well plates and treated overnight at 37 °C and 5% CO2. When the cells grew to about 80%, they were treated with different concentrations of compound 3a for 48 h. Then, the culture medium was removed and MTT solution was added. After 4 h, the absorbance values were measured at 490 nm. In addition, the IC50 values were calculated with SPSS (Statistical Product and Service Solutions).

The subject of a further experiment is BEL-7402. The experiment is described as follows: MTT cytotoxicity assay. As to conditions: Homo sapiens, 48 h. Here is the method:
as §1

The next experiment has as its system B16. Description: MTT cytotoxicity assay. As to conditions: Mus musculus, 48 h. Here is the method: as §1
In a further experiment the test system is SGC-7901. Description: MTT cytotoxicity assay. The settings on record: Homo sapiens, 48 h. Here is the method: as §1
In a further experiment the test system is A549. Description: MTT cytotoxicity assay. As to conditions: Homo sapiens, 48 h. As for the experimental part:
as §1

The test system of the next experiment is LO2. Description: MTT cytotoxicity assay, normal cells. The settings on record: Homo sapiens, L02, 48 h. As for the experimental part: as §1

On to `CC1(C)C2CC[C@]3(C)C(C(=O)C=C4[C@@H]5C[C@@](C)(C(=O)Oc6ccc(Cl)cc6)CC[C@]5(C)CC[C@]43C)[C@@]2(C)CC[C@@H]1O` (stereo partly drawn) [Compound 3b, 4-Chlorophenyl 3β-hydroxy-11-oxo-olean-12-en-30-oate], for which the IC50 was 24 ± 0.8 µM with HeLa; 39.9 ± 4.5 µM in the experiment on BEL-7402; 44.4 ± 5.7 µM with B16; 44.9 ± 5.9 µM in the experiment on SGC-7901; 17.7 ± 2 µM in the experiment with A549; 32.4 ± 7.4 µM in the experiment on LO2.
Regarding `CC1(C)C2CC[C@]3(C)C(C(=O)C=C4[C@@H]5C[C@@](C)(C(=O)Oc6ccc(F)cc6)CC[C@]5(C)CC[C@]43C)[C@@]2(C)CC[C@@H]1O` (stereo partly drawn) [Compound 3c, 4-Fluorophenyl 3β-hydroxy-11-oxo-olean-12-en-30-oate], the IC50 in the experiment on HeLa is 38 ± 6.4 µM; in the experiment on BEL-7402, above 100 µM; in the experiment on B16, 56.7 ± 4.5 µM; in the experiment on SGC-7901, 43.5 ± 3.8 µM; in the experiment on A549 it was 45.3 ± 3.4 µM; with LO2 it was 74.2 ± 5.5 µM.
Take `CC1(C)C2CC[C@]3(C)C(C(=O)C=C4[C@@H]5C[C@@](C)(C(=O)Oc6ccc([N+](=O)[O-])cc6)CC[C@]5(C)CC[C@]43C)[C@@]2(C)CC[C@@H]1O` (stereo partly drawn) [Compound 3d, 4-Nitrophenyl 3β-hydroxy-11-oxo-olean-12-en-30-oate]: the IC50 with HeLa was 23.2 ± 0.89 µM; in the experiment on BEL-7402, 26.4 ± 3.2 µM; in the experiment with B16 it was 39.1 ± 4.7 µM; in the experiment with SGC-7901, 32.1 ± 4.4 µM; in the experiment on A549, 26.9 ± 1.5 µM; with LO2, 78.7 ± 4.4 µM.
Regarding `Cc1ccc(OC(=O)[C@@]2(C)CC[C@]3(C)CC[C@]4(C)C(=CC(=O)C5[C@@]6(C)CC[C@H](O)C(C)(C)C6CC[C@]54C)[C@@H]3C2)cc1` (stereo partly drawn) [Compound 3e, p-Tolyl 3β-hydroxy-11-oxo-olean-12-en-30-oate], the IC50 is 26.6 ± 1.5 µM with HeLa; above 100 µM in the experiment on BEL-7402; 43.4 ± 3.6 µM with B16; 73.1 ± 5.6 µM in the experiment on SGC-7901; 21.2 ± 1.1 µM in the experiment with A549; 36.7 ± 3 µM with LO2.
For the compound `COc1ccc(OC(=O)[C@@]2(C)CC[C@]3(C)CC[C@]4(C)C(=CC(=O)C5[C@@]6(C)CC[C@H](O)C(C)(C)C6CC[C@]54C)[C@@H]3C2)cc1` (stereo partly drawn) [Compound 3f, 4-Methoxyphenyl 3β-hydroxy-11-oxo-olean-12-en-30-oate], the IC50 stood at 45.5 ± 2.1 µM in the experiment with HeLa; 41.6 ± 2.3 µM in the experiment with BEL-7402; 48.3 ± 1.2 µM in the experiment with B16; 69.2 ± 13.3 µM with SGC-7901; 32.7 ± 1.7 µM with A549; 71.7 ± 2.6 µM with LO2.
Take `CC1(C)[C@@H](O)CC[C@]2(C)[C@H]3C(=O)C=C4[C@@H]5C[C@@](C)(C(=O)O)CC[C@]5(C)CC[C@@]4(C)[C@]3(C)CC[C@@H]12` [GA, 18β-glycyrrhetinic acid, reference compound]: the IC50 amounted to 62.9 ± 3.4 µM in the experiment on HeLa; 45.9 ± 3.6 µM in the experiment with BEL-7402; 57.6 ± 5.8 µM in the experiment on B16; 75.9 ± 10.8 µM in the experiment on SGC-7901; 61.1 ± 12.5 µM in the experiment with A549; 87.5 ± 5.5 µM in the experiment with LO2.
